Read-outs that look alike come from different tables or passages of the source.
What was measured:
[1] = Caco-2 homogenate S9 stability; format: in vitro ADME; conditions: incubation with Caco-2 homogenate for 1 hour, 5 μM, 37° C.
Method: Tissue homogenates and plasma samples were obtained from commercial sources (Pel-Freez Biologicals, Rogers, Ark., and GenTest Corporation, Woburn, Mass.). Stability of prodrugs toward the specific enzyme aminopeptidase was also evaluated by incubation with the purified enzyme. Experimental conditions used for the in vitro studies were as follows. Each preparation was incubated with test compound at 37° C. for one hour. Aliquots (50 μL) were removed at 0, 30, and 60 min and quenched with 0.1% trifluoroacetic acid in acetonitrile. Samples were then centrifuged and analyzed for the presence of prodrug and released gabapentin by LC/MS/MS as described below.
Concentrations of prodrug or gabapentin in tissue extracts were determined by direct injection onto an API 2000 LC/MS/MS equipped with an Agilent 1100 binary pump and autosampler. Separation was achieved using a 3.5 μm Zorbax Ellipse XDB-C8 4.4×150 mm column heated to 45° C. during the analysis. The mobile phases were: 0.1% formic acid in water (A) and 0.1% formic acid in acetonitrile (B). The gradient condition was: 2% B for 0.5 min, increasing to 90% B in 2.0 min, maintained for 2.5 min and returning to 2% B for 2 min. A TurboIonSpray source was used on the API 2000. The analysis was performed in the positive ion mode and MRM transitions of 172.0/137.2 were used in the analysis of gabapentin (2). Ten microliters of the sample extracts were injected. Peaks were integrated using Analyst quantitation software. The method was linear for (2) over the concentration range 0.002 to 2.5 μg/mL respectively.
Caco-2 Homogenate S9 Stability: Caco-2 cells were grown for 21 days prior to harvesting. Culture medium was removed and cell monolayers were rinsed and scraped off into ice-cold 10 mM sodium phosphate/0.15 M potassium chloride, pH 7.4. Cells were lysed by sonication at 4° C. using a probe sonicator. Lysed cells were then transferred into 1.5 mL centrifuge vials and centrifuged at 9000 g for 20 min at 4° C. The resulting supernatant (Caco-2 cell homogenate S9 fraction) was aliquoted into 0.5 mL vials and stored at −80° C. until used.
For stability studies, prodrug (5 μM) was incubated in Caco-2 homogenate S9 fraction (0.5 mg protein per mL) for 60 min at 37° C. Concentrations of intact prodrug and released drug were determined at zero time and 60 minutes using LC/MS/MS.

[2] = rat; for Cmax PD (Cmax of prodrug in plasma): oral prodrug 25 mg-equivalents of gabapentin per kg; for Cmax of gabapentin in plasma: single oral dose 25 mg/kg gabapentin or 25 mg-equivalents of gabapentin per kg
Method: The pharmacokinetics of the prodrugs prepared in Examples 1 and 3 were examined in rats. […] Animals were fasted overnight prior to dosing and until 4 hours post-dosing. Serial blood samples were obtained over 24 hours following dosing and blood was processed for plasma by centrifugation. Plasma samples were stored at −80° C. until analyzed.
Plasma (50 μL) was precipitated by addition of […] of methanol and supernatant was injected directly onto the LC/MS/MS system. […] Following oral administration of gabapentin prodrugs, concentrations of prodrug and gabapentin in plasma were monitored over 24 hours.

PEPT1 = conditions: tested at 1 mM on oocytes expressing PEPT1; normalised to 1 mM glycyl-sarcosine
Method: (§1) Rat and human PEPT1 and PEPT2 expressing CHO cell lines were prepared as described in PCT Application WO01/20331. Gabapentin-containing dipeptides were evaluated for interaction with the peptide transporters using a radiolabeled substrate uptake assay in a competitive inhibition format, as described in PCT Application WO01/20331. Transport-induced currents were also measured in Xenopus oocytes transfected with rat and human PEPT1 and PEPT2.
(§2) RNA preparation: Rat and human PEPT1 and PEPT2 transporter cDNAs were subdcloned into a modified pGEM plasmid that contains 5′ and 3′ untranslated sequences from the Xenopus β-actin gene. These sequences increase RNA stability and protein expression. Plasmid cDNA was linearized and used as template for in vitro transcription (Epicentre Technologies transcription kit, 4:1 methylated:non-methylated GTP).
(§3) Xenopus oocyte isolation. Xenopus laevis frogs were anesthetized by immersion in Tricaine ([…] in deionized water) for 15 min. […]
(§4) Electrophysiology measurements. Transport currents were measured 2-14 days after injection, using a standard two-electrode electrophysiology set-up (Geneclamp 500 amplifier, Digidata 1320/PCLAMP software and ADInstruments hardware and software were used for signal acquisition).

PEPT2 = conditions: tested at 1 mM on oocytes expressing PEPT2; normalised to 1 mM glycyl-sarcosine
Method: as §1, §2, §3, §4

[3] = rat, oral and i.v. dosing of prodrug
[4] = monkey, sodium salt, 10 mg-equivalents of gabapentin per kg
[5] = monkey; for AUC G (AUC of gabapentin) / Cmax G (Cmax of gabapentin) / increase in gabapentin exposure (as measured by AUC) on a 7.5-fold increase in dose: oral; for increase in gabapentin exposure (as measured by AUC) on a 7.5-fold increase in dose: 10 to 75 mg-eq/kg
Method: The prodrug was administered orally to four adult male monkeys (approximate body weight of 6.5 kg) via an oral nasogastric tubeas solutions in water or PEG 400. The dose was 10 or 75 mg-equivalents of gabapentin per kg body weight. Animals were fasted overnight before the study and for 4 hours post-dosing. Blood samples (1.0 mL) were obtained via femoral or cephalic venipuncture at intervals over 48 hours after oral dosing. Blood was processed immediately for plasma and plasma was frozen at −80° C. until analyzed. […] Oral bioavailability was determined by comparison of area under the gabapentin concentration versus time curve (AUC) following oral administration of prodrug or intravenous administration of an equimolar dose of gabapentin hydrochloride.

In the case of N#Cc1cccc(C[C@H](N)C(=O)NCC2(CC(=O)O)CCCCC2)c1 [1al, L-3-Cyanophenylalanine-Gabapentin], the “% of prodrug surviving intact” value [1] is reported as 46% and the “Cmax PD (Cmax of prodrug in plasma)” value [2] is reported as 0.6 µg/mL.

With CC(C)C[C@H](CNC(=O)[C@@H](N)Cc1ccc(Br)cc1)CC(=O)O [compound 5, L-4-Bromophenylalanine-Pregabalin] the “PEPT-specific currents above background” value (PEPT1) was “at least 5 % of Imax for Gly-Sar” and the “PEPT-specific currents above background” value (PEPT2) was “at least 5 % of Imax for Gly-Sar”.

In the case of N[C@@H](Cc1ccccc1F)C(=O)NCC1(CC(=O)O)CCCCC1 [1ab, L-2-Fluorophenylalanine-Gabapentin], the “fraction absorbed intact following oral administration” value [3] is reported as “about 60%”.

In the case of N[C@@H](Cc1cc(F)cc(F)c1)C(=O)NCC1(CC(=O)O)CCCCC1 [1ao, L-3,5-Difluorophenylalanine-Gabapentin], the “% of prodrug surviving intact” value [1] is reported as 48% and the “Cmax PD (Cmax of prodrug in plasma)” value [2] is reported as 2.9 µg/mL.

With “L-Tyrosine-(O-2-Bromobenzyloxycarbonyl)-Gabapentin [4d]” the “% of prodrug surviving intact” value [1] was 3%.

For N[C@@H](Cc1ccc(Br)cc1)C(=O)NCC1(CC(=O)O)CCCCC1 [1ah, L-4-Bromophenylalanine-Gabapentin], the “% of prodrug surviving intact” value [1] was 79%, the “AUC G (AUC of gabapentin)” value ([4]; oral) was 29.1 ± 3.5 µg·h/mL and the “AUC PD (AUC of prodrug)” value ([4]; oral) was 18.9 ± 6.5 µg·h/mL. For the same compound, the “Cmax G (Cmax of gabapentin)” value ([4]; oral) was 3.8 ± 1.1 µg/mL, the “Cmax PD (Cmax of prodrug)” value ([4]; oral) was 14.9 ± 5.3 µg/mL and the “F (oral bioavailability as gabapentin)” value [4] was 49.1±6.8%. The “Cmax PD (Cmax of prodrug in plasma)” value [2] was 103 µg/mL and the “Cmax of gabapentin in plasma” value [2] was 6.1 µg/mL.

For NCC1(CC(=O)O)CCCCC1 [compound 2, gabapentin], the “Cmax of gabapentin in plasma” value [2] was 10.3 µg/mL, the “F (oral bioavailability as gabapentin)” value ([5]; 10 mg-eq/kg) was 53.9±17.3% and the “F (oral bioavailability as gabapentin)” value ([5]; 75 mg-eq/kg) was 22.9±1.1%. For the same compound, the “AUC G (AUC of gabapentin)” value ([5]; 10 mg-eq/kg) was 32.1 ± 10.4 µg·h/mL, the “Cmax G (Cmax of gabapentin)” value ([5]; 10 mg-eq/kg) was 3.7 ± 1.6 µg/mL and the “AUC G (AUC of gabapentin)” value ([5]; 75 mg-eq/kg) was 102 ± 4.9 µg·h/mL. The “Cmax G (Cmax of gabapentin)” value ([5]; 75 mg-eq/kg) was 10.8 ± 1.3 µg/mL and the “increase in gabapentin exposure (as measured by AUC) on a 7.5-fold increase in dose” value [5] was 3.2 fold.

With N[C@@H](CO)C(=O)NCC1(CC(=O)O)CCCCC1 [1ax, L-Serine-Gabapentin] the “fraction absorbed intact following oral administration” value [3] was 15-20% and the “increase in gabapentin exposure (as measured by AUC) on a 7.5-fold increase in dose” value [5] was 5.1 fold.

With N#Cc1ccc(C[C@H](N)C(=O)NCC2(CC(=O)O)CCCCC2)cc1 [1am, L-4-Cyanophenylalanine-Gabapentin] the “% of prodrug surviving intact” value [1] was 90% and the “Cmax PD (Cmax of prodrug in plasma)” value [2] was 22.4 µg/mL.

With NC(Cc1ccc(F)cc1F)C(=O)NCC1(CC(=O)O)CCCCC1 [1ap, D, L-2,4-Difluorophenylalanine-Gabapentin] the “% of prodrug surviving intact” value [1] was 90% and the “Cmax PD (Cmax of prodrug in plasma)” value [2] was 278 µg/mL.

With N[C@@H](Cc1ccc(C(F)(F)F)cc1)C(=O)NCC1(CC(=O)O)CCCCC1 [1aa, L-4-Trifluoromethylphenylalanine-Gabapentin] the “% of prodrug surviving intact” value [1] was 97% and the “Cmax PD (Cmax of prodrug in plasma)” value [2] was 30.0 µg/mL.

With N[C@@H](Cc1cccc2ccccc12)C(=O)NCC1(CC(=O)O)CCCCC1 [1l, L-1-Naphthylalanine-Gabapentin] the “% of prodrug surviving intact” value [1] was 29% and the “Cmax PD (Cmax of prodrug in plasma)” value [2] was 0.5 µg/mL.
